Measured values as given in US20140088056A1, “CARDIAC GLYCOSIDES ARE POTENT INHIBITORS OF INTERFERON-BETA GENE EXPRESSION” (priority 2010, published 2014).
Where two headings read alike, the source gives them in different places. Marks after values point to notes of the source that are not given here.

How the values were obtained:
IFNβ promoter = assay: cells; assay type: cell-based, human; settings: for IC50: Homo sapiens, HEK-293T, read-out: IC50 for inhibition of virus induced IFNβ expression; for effect of ion-channel ligands on IFNβ reporter: increasing concentrations
Procedure: 293T cells were transfected with the IFNβ promoter driving a firefly luciferase reporter together a reference renilla luciferase reporter plasmid. […] Firefly luciferase activities were measured after another 24 hrs and normalized to that of renilla activities.
293T cells were transfected with an IFNβ promoter driving luciferase reporter, 24 hrs later, increasing amounts (10 nM to 10 uM) of Ouabain (FIG. 8A) or digoxin (FIG. 8B) were added to cells before the Sendai virus infection. Luciferase activities were measured one day later.
Approximately 40,000 293T cells were seeded in a 96 well plate, and co-transfected with IFNβ-110 firefly luciferase reporter and renilla luciferase plasmids (Fitzgerald, K. A. et al. IKKepsilon and TBK1 are essential components of the IRF3 signaling pathway. Nat Immunol 4, 491-6 (2003)). After 24 hrs, cells were treated with various chemicals at the indicated concentrations, and sendai virus infection was initiated one hour later. After another 24 hrs, cells were lysed and subjected to Dual-Glo luciferase assay analysis (Promega) with an Analyst AD plate reader.
Human 293T cells were transfected with the IFNβ promoter driving the expression of luciferase construct. The cells were treated with a library of chemical compounds, and sendai virus (SeV) infection initiated one hour later. Luciferase activity was measured after another 24 hrs of culture. Signals were normalized to the samples not treated with chemicals.

TNF signaling = settings: Yang et al.; blocks TRADD recruitment, inhibits IKBα degradation; cited from earlier work
293T cells [1] = assay: Western blot analysis of apoptosis and autophagy; assay type: cell-based, human; settings: 8 hours, bufalin 1 nM to 10 μM, staurosporine 4 μM; for induction of LC3B-II (marker of autophagy): BFA 100 nM
Procedure: (§1) The cells were also exposed to 0.1% Triton X-100 for 1 hr before the viability assay as a control (FIG. 16E). Data represent mean values±s.d. (n=3). […] Cells were harvested and washed, then stained with Allophycocyanin (APC) conjugated Annexin V and 7-AAD for 15 minutes and subjected to flow cytometry analysis. The number in each graph is the percentile of Annexin V or 7-AAD positive populations. […] Total protein lysates were prepared and separated on SDS-PAGE for Western blot analysis of PARP1, cleaved PARP1, cleaved Caspase3, LC3B, ATP1a1, and beta-actin expression.
Apoptosis and autophagy were also analyzed by Western blots. […] Total protein lysates were prepared and separated on SDS-PAGE for Western blot analysis of PARP1, cleaved PARP1, cleaved Caspase3, LC3B, ATP1a1, and beta-actin expression.

293T cells [2] = assay: Flow cytometry analysis of apoptosis (Annexin V / 7-AAD); assay type: cell-based, human; settings: bufalin 1 μM 8 hours; staurosporine 4 μM 4 hours
Procedure: as §1
Treated cells and untreated control cells were harvested and washed with PBS, and stained with APC conjugated Annexin V and 7-AAD (both from BD Biosciences) in Annexin V binding buffer (10 mM HEPES, pH 7.4, 140 mM NaCl, 2.5 mM CaCl2) for 15 minutes at room temperature, and then subjected to flow cytometry analysis on a FACSCalibur (BD Biosciences).
Cells were harvested and washed, then stained with Allophycocyanin (APC) conjugated Annexin V and 7-AAD for 15 minutes and subjected to flow cytometry analysis. […] 11 for sturosporine.

endogenous IFNβ gene = assay: RT-PCR of virus induced endogenous IFNβ gene in 293T cells treated with ion-channel modulators; assay type: cell-based, human; settings: 10 uM, 6 hrs
Procedure: 293T cells were treated with 10 uM of nimodipine, diazoxide or phenamil 30 min before Sendai virus infection, 6 hrs later total RNA were extracted and the expression of various genes were analyzed by RT-PCR.
Since the major function of the pump is to maintain the cellular ion homeostasis, the inventors reasoned that it might be possible to inhibit or stimulate IFNβ induction by varying the intracellular ion concentration. The inventors thus performed luciferase reporter assays with an ion-channel ligand library, which contains various modulators for sodium, potassium, calcium and chloride channels. The experiments were conducted similarly to the initial screening assays: 293T cells were transfected with reporter plasmid, then chemical ligands were added before starting virus infection, and luciferase activity measured after another 24 hrs.

## Cn1c2ccccc2c2c3c(c4c5ccccc5n(CCC#N)c4c21)CNC3=O [Go 6976]
IFNβ promoter; tested at 3 μM, chemical library screen
  Inhibition % of virus induced IFNβ expression: 55.9* %

## C[C@H]1O[C@@H](O[C@H]2[C@@H](O)C[C@H](O[C@H]3[C@@H](O)C[C@H](O[C@H]4CC[C@@]5(C)[C@H](CC[C@@H]6[C@@H]5CC[C@]5(C)[C@@H](C7=CC(=O)OC7)CC[C@]65O)C4)O[C@@H]3C)O[C@@H]2C)C[C@H](O)[C@@H]1O [digitoxin]
TNF signaling
  TNF signaling: inhibit

## C[C@@H]1O[C@@H](O[C@H]2C[C@@H](O)[C@]3(CO)[C@H]4[C@H](O)C[C@]5(C)[C@@H](C6=CC(=O)OC6)CC[C@]5(O)[C@@H]4CC[C@]3(O)C2)[C@H](O)[C@H](O)[C@H]1O [ouabain]
IFNβ promoter; 293T cells, Sendai virus
  IC50: 64.8 nM

## O=C(Nc1cccc(Nc2cc(Nc3cccc(C(F)(F)F)c3)ncn2)c1)C1CC1 [EGF receptor inhibitor]
IFNβ promoter; chemical library screen
  Inhibition % @ 10 μM of virus induced IFNβ expression: 38.5%

## O=C(Nc1ccc([N+](=O)[O-])cc1O)Nc1ccccc1Br [SB 225002]
IFNβ promoter; chemical library screen
  Inhibition % @ 10 μM of virus induced IFNβ expression: 50.8%

## CN[C@@H]1C[C@H]2O[C@@](C)([C@@H]1OC)n1c3ccccc3c3c4c(c5c6ccccc6n2c5c31)C(=O)NC4 [staurosporine]
293T cells [1]
  cleavage products of PARP1 and Caspase3 (indication of apoptosis): induced
  induction of LC3B-II (marker of autophagy): induced
293T cells [2]
  Percentile of Annexin V or 7-AAD positive populations: 17.11

## C[C@H]1O[C@@H](O[C@H]2[C@@H](O)C[C@H](O[C@H]3[C@@H](O)C[C@H](O[C@H]4CC[C@@]5(C)[C@H](CC[C@@H]6[C@@H]5C[C@@H](O)[C@]5(C)[C@@H](C7=CC(=O)OC7)CC[C@]65O)C4)O[C@@H]3C)O[C@@H]2C)C[C@H](O)[C@@H]1O [digoxin]
IFNβ promoter
  IC50: 56.6 nM

## CC#CC(=O)Nc1cc2c(Nc3ccc(F)c(Cl)c3)ncnc2cn1 [EGFR/ErbB-2/ErbB-4 Inhibitor]
IFNβ promoter; chemical library screen
  Inhibition % @ 10 μM of virus induced IFNβ expression: 20.6%

## CC1=NS(=O)(=O)c2cc(Cl)ccc2N1 [diazoxide, Diazoxide]
Endogenous IFNβ gene
  virus induced expression of the endogenous IFNβ gene: similarly inhibited
IFNβ promoter
  effect of ion-channel ligands on IFNβ reporter: more inhibition

## NC(=Nc1ccccc1)NC(=O)c1nc(Cl)c(N)nc1N [phenamil]
Endogenous IFNβ gene
  virus induced expression of the endogenous IFNβ gene: less potent
IFNβ promoter
  effect of ion-channel ligands on IFNβ reporter: consistently enhanced

## CO/C1=C\C(C)=C\[C@@H](C)[C@@H](O)[C@@H](C)C/C(C)=C/C=C/[C@H](OC)[C@@H]([C@@H](C)[C@@H](O)[C@H](C)[C@@]2(O)C[C@@H](O)[C@H](C)[C@@H](C(C)C)O2)OC1=O [BFA, bafilomycin A1]
293T cells [1]
  induction of LC3B-II (marker of autophagy): induced
